Results published in ChEMBL document CHEMBL1126745, “2,2-Dialkylnaphthalen-1-ones as new potassium channel activators” (J Med Chem, 1993).

Columns and labels:
Rattus norvegicus [1] = experiment: Change in systolic blood pressure at intervals of 1 hr after oral administration of 1 mg/kg of compound in spontaneously hypertensive rats (in vivo); Not significant; format: functional, Artery
Rattus norvegicus [2] = organism: Rattus norvegicus; experiment: Percentage of inhibition of noradrenaline-induced contractions in rat portal vein at 10 uM (in vitro); format: functional
Rattus norvegicus [3] = organism: Rattus norvegicus; experiment: In vitro inhibition of noradrenaline-induced contractions in rat portal vein; format: functional
Cavia porcellus = organism: Cavia porcellus; experiment: In vitro inhibition of spontaneous tone of guinea pig tracheal spirals; format: functional; settings: Trachea
Rattus norvegicus [4] = experiment: Change in systolic blood pressure at intervals of 1 hr after oral administration of 1 mg/kg of compound in spontaneously hypertensive rats (in vivo); format: functional, Artery

| Structure (SMILES) | Delta blood pressure (Rattus norvegicus [1]) [mmHg] | inhibition at 10 µM (Rattus norvegicus [2]) [%] | IC50 (Rattus norvegicus [3]) [µM] | IC50 (Cavia porcellus) [µM] | Max fall in blood pressure (Rattus norvegicus [4]) [mmHg] | Delta blood pressure (Rattus norvegicus [4]) [mmHg] |
| --- | --- | --- | --- | --- | --- | --- |
| COc1ccc2c(c1)C(N1CCCC1=O)=CC(C)(C)C2=O | <20 | 20 |  |  |  |  |
| CC1(C)C=C(N2Cc3ccccc3C2=O)c2cc(C#N)ccc2C1=O |  |  | 0.6 | 1.3 | 34 |  |
| CC1(C)C(=O)c2ccccc2[C@@H](n2ccccc2=O)[C@@H]1O | <20 | 0 |  |  |  |  |
| CC1(C)C=C(N2CCCC2=O)c2cc(Br)ccc2C1=O |  |  | 10 | 7.3 |  |  |
| CC1(C)C(=O)c2ccc(S(=O)(=O)c3ccccc3)cc2[C@@H](n2ccccc2=O)[C@@H]1O |  |  | 0.3 | 0.7 |  |  |
| CC1(C)C(=O)c2ccc(C#N)cc2[C@@H](NC(=O)c2ccccn2)[C@@H]1O |  |  | 23 | > 10 |  |  |
| CNc1ccc2c(c1)C(n1ccccc1=O)=CC(C)(C)C2=O | <20 |  | 52 | 9.1 |  |  |
| CC1(C)C(=O)c2ccc(C#N)cc2[C@@H](NC(=O)c2ccccc2)[C@@H]1O |  |  |  | 1.8 | 31 |  |
| CC(=O)N[C@@H]1c2cc(C#N)ccc2C(=O)C(C)(C)[C@H]1O |  |  | 45 | 8.7 | 28.6 |  |
| CC1(C)C(=O)c2ccc(Br)cc2C(N2CCCC2=O)[C@@H]1O (stereo partly specified) |  | 40 |  | > 10 | 39 |  |
| CC1(C)C=C(n2ccccc2=O)c2ccc(Br)cc2C1=O |  |  | 2.7 | 4.7 | 37 |  |
| CC1(C)C=C(N2CCCCC2=O)c2cc(Br)ccc2C1=O |  |  | 8 | 3.5 | 43.6 |  |
| CC1(C)C(=O)c2ccc(Cl)cc2[C@@H](n2ccccc2=O)[C@@H]1O |  | 0 |  |  |  |  |
| CC1(C)C(=O)c2ccc(Br)cc2[C@@H](n2ccccc2=O)[C@@H]1O |  |  | 28 | > 10 | 31 |  |
| CC1(C)C(=O)c2ccc(C#N)cc2[C@@H](Oc2ccccn2)[C@@H]1O |  |  | 25 | 5.5 | 43 |  |
| CC1(C)C(=O)c2ccc(C#N)cc2[C@@H](NC(=O)c2ccc(Cl)cc2Cl)[C@@H]1O | <20 | 35 |  | > 10 |  |  |
| CC1(C)C(=O)c2ccc(C#N)cc2[C@@H](OC2=CC(=O)CC2)[C@@H]1O |  | 9 |  | > 10 |  | 50 |
| CC1(C)C=C(n2ccccc2=O)c2cc(S(=O)(=O)c3ccccc3)ccc2C1=O |  |  | 0.1 | 0.5 | 32.6 |  |
| CC1(C)C(=O)c2cc(Cl)c(Cl)cc2[C@@H](n2ccccc2=O)[C@@H]1O |  |  | 1.5 | 5 | 52 |  |
| CCC1(CC)CCc2cc(OC)ccc2C1=O |  |  | 8 | > 10 | 83 |  |
| CC1(C)C(=O)c2ccc(C#N)cc2[C@@H](NC(=O)c2ccncc2)[C@@H]1O | <20 | 39 |  | > 10 |  |  |
| CC1(C)C(=O)c2ccc(Br)cc2[C@@H](N2CCN=C2NC#N)[C@@H]1O |  | 8 |  | > 10 | 27.6 |  |
| CC1(C)C(=O)c2ccc(Br)cc2[C@@H](N2CCS/C2=N\C#N)[C@@H]1O |  | 26 |  |  | 30.5 |  |

| Structure (SMILES) | Delta blood pressure (Rattus norvegicus [1]) [mmHg] | inhibition at 10 µM (Rattus norvegicus [2]) [%] | IC50 (Rattus norvegicus [3]) [µM] | IC50 (Cavia porcellus) [µM] | Max fall in blood pressure (Rattus norvegicus [4]) [mmHg] | Delta blood pressure (Rattus norvegicus [4]) [mmHg] |
| --- | --- | --- | --- | --- | --- | --- |
| CC(=O)N(C)c1ccc2c(c1)C(n1ccccc1=O)=CC(C)(C)C2=O |  |  | 4.3 | 3.1 | 74 |  |
| CC1(C)C(=O)c2ccc(C(F)(F)F)cc2[C@@H](n2ccccc2=O)[C@@H]1O |  |  |  | 1.4 |  |  |
| COC(=O)c1ccc2c(c1)C(n1ccccc1=O)=CC(C)(C)C2=O |  |  | 2.7 | 8.5 | 39 |  |
| CC1(C)C=C(n2ccccc2=O)c2cc(Br)ccc2C1(C)O (stereo unspecified) | <20 | 23 |  | 4.2 |  |  |
| CC1(C)C=C(N2CCCC2=O)c2cc(Cl)ccc2C1=O |  | 0 |  | > 10 | 32.5 |  |
| C=CCn1nc(O[C@@H]2c3cc(C#N)ccc3C(=O)C(C)(C)[C@H]2O)ccc1=O |  |  | 14 | 3.9 |  |  |
| COc1ccc(C(=O)N[C@@H]2c3cc(C#N)ccc3C(=O)C(C)(C)[C@H]2O)cc1 |  |  | 12 | 12.2 |  |  |
| CO/N=C1\c2ccc(C#N)cc2C(n2ccccc2=O)=CC1(C)C |  |  | 25 | > 10 | 32.4 |  |
| CC1(C)C=C(n2ccccc2=O)c2cc(C#N)ccc2/C1=N\O |  | 27 |  | 12.5 | 28 |  |
| CC(=O)N(C)c1ccc2c(c1)C(N1CCCC1=O)=CC(C)(C)C2=O |  |  | 17 | 2.5 | 23 |  |
| CC1(C)C(=O)c2ccc(Br)cc2[C@@H](N2Cc3ccccc3C2=O)[C@@H]1O |  |  | 3.1 | > 10 | 24 |  |
| CC1(C)C=C(n2ccccc2=O)c2cc(Cl)c(Cl)cc2C1=O |  |  | 0.7 | 0.1 | 58 |  |
| CCC1(CC)C=C(n2ccccc2=O)c2cc(Br)ccc2C1=O |  |  | 3.3 | 8 | 44 |  |
| C=Cc1ccc2c(c1)C(n1ccccc1=O)=CC(C)(C)C2=O |  |  | 1.5 | 4.6 | 30.6 |  |
| CC1(C)C(=O)c2ccc(C#N)cc2C(N2CCCC2=O)[C@@H]1O (stereo partly specified) |  | 12 |  | > 10 | 23 |  |
| CC1(C)C(=O)c2ccc(C#N)cc2[C@@H](n2ccccc2=O)[C@@H]1OC=O |  |  |  | 4.3 | 42 |  |
| CC(=O)O[C@H]1[C@H](n2ccccc2=O)c2cc(C#N)ccc2C(=O)C1(C)C |  |  | 23 | 2 |  |  |
| COC1c2ccc(Br)cc2C(n2ccccc2=O)=CC1(C)C (stereo unspecified) |  | 22 |  | 17 | 28 |  |
| CC1(C)C=C(NC(=O)c2ccccn2)c2cc(C#N)ccc2C1=O |  |  | 9 | 3.1 | 22.5 |  |
| CC1(C)C=C(n2ccccc2=O)c2cc(Cl)ccc2C1=O |  |  | 1.4 | 1.1 | 53.7 |  |
| CC(=O)N(C)c1ccc2c(c1)[C@@H](n1ccccc1=O)[C@H](O)C(C)(C)C2=O |  |  | 33 | > 10 | 94 |  |
| CC1(C)C(=O)c2ccc(C#N)cc2[C@@H](NC(=O)c2ccoc2)[C@@H]1O |  | 24 |  |  | 58 |  |
| CC1(C)C=C(N2CCCC2=O)c2ccc(C#N)cc2C1=O |  | 0 |  |  | 24.5 |  |

| Structure (SMILES) | Delta blood pressure (Rattus norvegicus [1]) [mmHg] | inhibition at 10 µM (Rattus norvegicus [2]) [%] | IC50 (Rattus norvegicus [3]) [µM] | IC50 (Cavia porcellus) [µM] | Max fall in blood pressure (Rattus norvegicus [4]) [mmHg] | Delta blood pressure (Rattus norvegicus [4]) [mmHg] |
| --- | --- | --- | --- | --- | --- | --- |
| CCC1(CC)C=C(n2ccccc2=O)c2cc(C#N)ccc2C1=O |  |  | 7.8 | 2.6 | 35.6 |  |
| CC1(C)C(=O)c2ccc(Br)cc2[C@@H](Oc2ccccn2)[C@@H]1O |  | 32 |  |  | 33 |  |
| CCc1ccc2c(c1)C(n1ccccc1=O)=CC(C)(C)C2=O |  |  | 5.5 | 5.1 | 58 |  |
| CC1(C)C(=O)c2ccc(F)cc2[C@@H](n2ccccc2=O)[C@@H]1O |  | 0 |  |  | 21.5 |  |
| COc1ccc2c(c1)C(n1ccccc1=O)=CC(C)(C)C2=O |  |  | 21 | 3.1 |  |  |
| CC1(C)C=C(n2ccccc2=O)c2cc(F)ccc2C1=O |  |  | 19 | 3.9 | 35 |  |
| COC(=N)c1ccc2c(c1)C(n1ccccc1=O)=CC(C)(C)C2=O |  |  | 11 | 3.1 |  | 27.5 |
| CC1(C)C=C(n2ccccc2=O)c2cc(C(=O)O)ccc2C1=O | <20 | 0 |  | > 10 |  |  |
| CC1(C)C(=O)c2ccc(C#N)cc2[C@@H](NC(=O)c2cccnc2)[C@@H]1O |  |  | 2.8 | 4.1 | 50 |  |
| CC1(C)C(=O)c2ccc(Br)cc2[C@@H](Oc2ccc(=O)[nH]n2)[C@@H]1O |  |  | 0.8 | 4.4 |  |  |
| COc1ccc2c(c1)[C@@H](n1ccccc1=O)[C@H](O)C(C)(C)C2=O |  | 0 |  | > 10 | 42.9 |  |
| CC1(C)C=C(N2CCCC2=O)c2ccc(Br)cc2C1=O |  | 11 |  | > 10 | 54.5 |  |
| CC1(C)C(=O)c2ccc(C#N)cc2[C@@H](NC(=O)c2ccc([N+](=O)[O-])cc2)[C@@H]1O | <20 |  | 4.9 | 7.9 |  |  |
| CC1(C)C=C(N2CCCC2=O)c2ccccc2C1=O | <20 | 0 |  |  |  |  |
| Cn1nc(OC2=CC(C)(C)C(=O)c3ccc(C#N)cc32)ccc1=O |  | 0 |  |  |  | 24 |
| CC1(C)C=C(n2ccccc2=O)c2ccc(C#N)cc2C1=O |  | 0 |  | > 10 | 41 |  |
| CC(=O)c1ccc2c(c1)C(n1ccccc1=O)=CC(C)(C)C2=O |  |  | 3.3 | 1 | 56.5 |  |
| CC1(C)C(=O)c2ccc(C#N)cc2[C@@H](N2Cc3ccccc3C2=O)[C@@H]1O |  |  | 0.5 | 1.1 | 76 |  |
| CC1(C)C(=O)c2ccc(C#N)cc2[C@@H](n2ccccc2=O)[C@@H]1O |  |  | 14 | > 10 | 84 |  |
| CC1(C)C(=O)c2cc(Br)ccc2[C@@H](n2ccccc2=O)[C@@H]1O |  |  | 42 |  | 29.3 |  |
| CC(=O)O[C@H]1[C@H](n2ccccc2=O)c2cc(Br)ccc2C(=O)C1(C)C |  | 38 |  |  | 29 |  |
